Reference: patent US12351559B2 (Biohaven Therapeutics Ltd., priority 2014, dated 2025)

The compounds below were run against T1, Kv7.2/7.3 (Homo sapiens, UniProt O43525+O43526) (assay: Kv7.2/7.3 activation assay, QPatch planar patch-clamp, single concentration screen). Conditions: Kv7.2/Kv7.3 co-expressing HEK cells, compound 3 μM, steady-state current at end of 2 s pulse to −30 mV.
T1 construct: host or cells: HEK cells, tetracycline-inducible expression
Format: cell-based
Set-up: key: <1.2-fold increase over baseline (−); +/−: as a range from <1.2-fold increase over baseline (−) up to >6-fold increase over baseline (+++); as a range from <1.2-fold increase over baseline (−) up to >6-fold increase over baseline (+++); as a range from <1.2-fold increase over baseline (−) up to >6-fold increase over baseline (+++); >6-fold increase over baseline (+++)
Procedure: The ability of compounds to potentiate K-currents in Kv7.2/7.3 containing HEK cells was assessed using planar patch-clamp on the QPatch automated screening platform.
Cell Line: The hKv7.2/7.3 cell line was obtained from Chantest (Cleveland, OH 44128) cat. #CT6147. These HEK cells will express the Kv7.2/7.3 ion channels when induced.
Cell Culture: Cells were maintained in a media containing DMEM/F12; 50/50 (GIBCO cat. #11330), 10% Fetal Bovine Serum (FBS) (GIBCO cat. #26140), 100 units/mL Penicillin-Streptomycin (GIBCO cat. #15140), 0.005 mg/mL Blasticidin (INVIVOGEN cat. #ant-bl-1), 0.5 mg/mL Geneticin (GIBCO cat. #10131), 0.1 mg/ml Zeocin (GIBCO cat. #R25001). Cells used in the electrophysiology assay were maintained in a media without Blasticidin, Geneticin and Zeocin for 2 days and channel expression was induced by adding tetracycline (BIOLINE cat. #BIO-87030) at a final concentration of 1 mg/mL. Cells were grown in T-175 flask to ˜75% confluency. Currents were recorded 24 hours after channel induction.
Compound Plates: Test compounds were prepared by performing serial dilutions on a Biomek NX^P (BECKMAN COULTER). Final dilutions were made in external recording solution with a final DMSO concentration of 0.1% DMSO. For single concentration screens each plate had 10 μM retigabine as a positive control and 0.1% DMSO as a negative control.
Electrophysiology: On the day of the experiment cells were washed with Hank's Balanced Salt Solution (HBBS) (GIBCO cat. #14175) and harvested with Tryple (GIBCO cat. #12604). Cells were then centrifuged at 2000 rpm for 5 minutes and resuspended in CHO-S-SFM (GIBCO cat. #12052) at ˜3×10^6 cells/mL. Cells were stirred for 30 minutes before experiments were started. External recording solution contained (in mM): NaCl (145), KCl (4), CaCl2 (2), MgCl2 (1), HEPES (10) and Glucose (10); pH was adjusted to 7.4 with NaOH and the osmolarity was adjusted to 300-305 mOsM with sucrose if necessary. Internal solution contained (in mM): KCl (125), KF (10), EGTA (5), Na2ATP (5), MgCl2 (3.2), HEPES (5); pH was adjusted to 7.2 with KOH and the osmolarity was adjusted to 298-302 mOsM with sucrose.
Potassium channel activity was measured on the QPatch HTX (Sophion Bioscience) using QPlates with 48-wells/plate. Each cell was taken as an independent experiment and only one compound was tested per well. Potassium channel activity was elicited by holding at −80 mV and stepping to −30 mV for 2 s followed by a 100 ms pulse to −120 mV.
Single concentration screen: Baseline conditions were obtained by recording 5 sweeps in the external solution only, this was repeated for three applications of the external solution. […] The steady-state current at the end of the 2 s pulse to −30 mV was measured to determine the fold increase from baseline.

| Structure (SMILES) | Kv7.2/7.3 Activity: increase in current over baseline |
| --- | --- |
| Cc1cc2nc(NC(=O)C[C@](C)(O)c3ccccc3)n(C3CCC3)c2cc1C#N [Example 123, (S)-N-(6-cyano-1-cyclobutyl-5-methyl-1H-benzo[d]imidazol-2-yl)-3-hydroxy-3-phenylbutanamide] | +/− |
| O=C(CC(C(F)(F)F)C(F)(F)F)Nc1nc2ccc(C(F)(F)F)cc2n1C1CCC1 [Example 39, N-(1-cyclobutyl-6-(trifluoromethyl)-1H-benzo[d]imidazol-2-yl)-4,4,4-trifluoro-3-(trifluoromethyl)butanamide] | + |
| CC(C)(O)Cc1ccc2nc(NC(=O)[C@H]3CC3(C)C)n(C3CCC3)c2c1F [Example 113, (S)-N-(1-cyclobutyl-7-fluoro-6-(2-hydroxy-2-methylpropyl)-1H-benzo[d]imidazol-2-yl)-2,2-dimethylcyclopropane-1-carboxamide] | + |
| CC(C)(O)[C@H]1C[C@@H]1C(=O)Nc1nc2ccc(C#N)cc2n1C1CCC1 [Example 15, (1S,2S)-N-(6-cyano-1-cyclobutyl-1H-benzo[d]imidazol-2-yl)-2-(2-hydroxypropan-2-yl)cyclopropane-1-carboxamide] | +/− |
| CCOC(=O)Cc1ccc2nc(NC(=O)CC(C)(C)C)n(-c3ccc(F)cc3)c2c1F [Example 112, ethyl 2-(2-(3,3-dimethylbutanamido)-7-fluoro-1-(4-fluorophenyl)-1H-benzo[d]imidazol-6-yl)acetate] | ++ |
| C[C@@](O)(CC(=O)Nc1nc2ccc(Cl)cc2n1C1CCC1)c1ccccc1 [Example 100, (R)-N-(6-chloro-1-cyclobutyl-1H-benzo[d]imidazol-2-yl)-3-hydroxy-3-phenylbutanamide] | + |
| Cc1cc2nc(NC(=O)CC(C)(C)O)n(C(C)(C)C)c2cc1C#N [Example 128, N-(1-(tert-butyl)-6-cyano-5-methyl-1H-benzo[d]imidazol-2-yl)-3-hydroxy-3-methylbutanamide] | +/− |
| C[C@@](O)(CC(=O)Nc1nc2ccc(C#N)cc2n1C1CCC1)c1ccccc1 [Example 30, (R)-N-(6-cyano-1-cyclobutyl-1H-benzo[d]imidazol-2-yl)-3-hydroxy-3-phenylbutanamide] | + |
| Cc1cc2nc(NC(=O)C[C@](C)(O)c3ccccc3)n(C(C)(C)C)c2cc1C#N [Example 119, (S)-N-(1-(tert-butyl)-6-cyano-5-methyl-1H-benzo[d]imidazol-2-yl)-3-hydroxy-3-phenylbutanamide] | +/− |
| CC(C)(O)CC(=O)Nc1nc2ccc(C(F)(F)F)cc2n1-c1ccc(OC(F)(F)F)c(F)c1 [Example 144, N-(1-(3-fluoro-4-(trifluoromethoxy)phenyl)-6-(trifluoromethyl)-1H-benzo[d]imidazol-2-yl)-3-hydroxy-3-methylbutanamide] | + |
| Cc1cc(-n2c(NC(=O)CC(C)(C)C)nc3ccc(C(F)(F)F)cc32)on1 [Example 46, 3,3-dimethyl-N-(1-(3-methylisoxazol-5-yl)-6-(trifluoromethyl)-1H-benzo[d]imidazol-2-yl)butanamide] | + |
| CCC(O)c1ccc2nc(NC(=O)CC(C)(C)C)n(C3CCC3)c2c1 (centres unmarked) [Example 57] | + |
| CC(C)(C)CC(=O)Nc1nc2cccc(CO)c2n1C1CCC1 [Example 68, N-(1-cyclobutyl-7-(hydroxymethyl)-1H-benzo[d]imidazol-2-yl)-3,3-dimethylbutanamide] | + |
| Cc1cc(-n2c(NC(=O)[C@H]3CC3(C)C)nc3ccc(C(F)(F)F)cc32)on1 [Example 45, (S)-2,2-Dimethyl-N-(1-(3-methylisoxazol-5-yl)-6-(trifluoromethyl)-1H-benzo[d]imidazol-2-yl)cyclopropanecarboxamide] | + |
| CC(C)(O)c1ccc2nc(NC(=O)[C@@H]3CC3(C)C)n(C3CCC3)c2c1 [Example 89, (R)-N-(1-cyclobutyl-6-(2-hydroxypropan-2-yl)-1H-benzo[d]imidazol-2-yl)-2,2-dimethylcyclopropane-1-carboxamide] | ++ |
| CC(O)c1ccc2nc(NC(=O)[C@@H](C)C(C)C)n(C3CCC3)c2c1 (stereo partly drawn) [Example 56, (2S)-N-(1-cyclobutyl-6-(1-hydroxyethyl)-1H-benzo[d]imidazol-2-yl)-2,3-dimethylbutanamide] | ++ |
| CC(C)[C@H](C)C(=O)Nc1nc2ccc(C(C)(C)O)cc2n1C1CCC1 [Example 54, (S)-N-(1-cyclobutyl-6-(2-hydroxypropan-2-yl)-1H-benzo[d]imidazol-2-yl)-2,3-dimethylbutanamide] | ++ |
| N#Cc1ccc2nc(NC(=O)[C@@H]3C[C@@H]4CC[C@H]3C4)n(C3CCC3)c2c1 [Example 10, (1S,2R,4R)-N-(6-cyano-1-cyclobutyl-1H-benzo[d]imidazol-2-yl)bicyclo[2.2.1]heptane-2-carboxamide] | + |
| CC(C)(C)CC(=O)Nc1nc2cccc(C(C)(C)O)c2n1C1CCC1 [Example 82, N-(1-cyclobutyl-7-(2-hydroxypropan-2-yl)-1H-benzo[d]imidazol-2-yl)-3,3-dimethylbutanamide] | +/− |
| C[C@](O)(CC(=O)Nc1nc2ccc(Cl)cc2n1C1CCC1)c1ccccc1 [Example 99, (S)-N-(6-chloro-1-cyclobutyl-1H-benzo[d]imidazol-2-yl)-3-hydroxy-3-phenylbutanamide] | + |
| Cc1cc2nc(NC(=O)C3CC(F)(F)C3)n(C(C)(C)C)c2cc1C#N [Example 129, N-(1-(tert-butyl)-6-cyano-5-methyl-1H-benzo[d]imidazol-2-yl)-3,3-difluorocyclobutane-1-carboxamide] | +/− |
| CC(C)c1ccc2nc(NC(=O)CC(C)(C)C)n(C3CCC3)c2c1 [Example 64, N-(1-cyclobutyl-6-isopropyl-1H-benzo[d]imidazol-2-yl)-3,3-dimethylbutanamide] | ++ |
| CC(C)(C)CC(=O)Nc1nc2ccccc2n1-c1ccccc1 [Example 2, 3,3-dimethyl-N-(1-phenyl-1H-benzo[d]imidazol-2-yl)butanamide] | + |
| CC(C)(O)Cc1ccc2nc(NC(=O)[C@H]3CC3(C)C)n(-c3ccc(F)cc3)c2c1F [Example 115, (S)-N-(7-fluoro-1-(4-fluorophenyl)-6-(2-hydroxy-2-methylpropyl)-1H-benzo[d]imidazol-2-yl)-2,2-dimethylcyclopropane-1-carboxamide] | + |
| CC(O)c1ccc2nc(NC(=O)CC(C)(C)C)n(C3CCC3)c2c1 (centres unmarked) [Example 55, N-(1-cyclobutyl-6-(1-hydroxyethyl)-1H-benzo[d]imidazol-2-yl)-3,3-dimethylbutanamide] | + |
| N#Cc1ccc2nc(NC(=O)C3CC(F)(F)C3)n(C3CCC3)c2c1 [Example 9, N-(6-cyano-1-cyclobutyl-1H-benzo[d]imidazol-2-yl)-3,3-difluorocyclobutane-1-carboxamide] | + |
